Reference: patent US10034862B2, “Solid pharmaceutical composition comprising amlodipine and losartan” (HANMI PHARM. CO., LTD., priority 2014, dated 2018)

How the values were obtained:
[1] = cited from earlier work
[2] = Dissolution of losartan at different pH (gelation); assay type: physicochemical
Protocol: However, when the combined formulation of amlodipine and losartan was prepared, undesirable gelation of losartan was observed. […] As such, in the combined formulation of amlodipine and losartan, amlodipine may also be trapped in the losartan gel due to the gelation of losartan, resulting in a decrease in dissolution rate.

dissolution of losartan (in words) ([2]; low pH (e.g., pH 1.2 or 2.0), gelation): very slowly dissolved
dissolution of losartan (in words) ([2]; purified water or relatively high pH (e.g., pH 6.8)): easily dissolved
Compound: CCCCc1nc(Cl)c(CO)n1Cc1ccc(-c2ccccc2-c2nnn[nH]2)cc1 [losartan, 2-butyl-4-chloro-1-[[2′-(1H-tetrazol-5-yl)[1,1′-biphenyl]-4-yl]methyl]-1H-imidazol-5-methanol]
reduction of Cmax of losartan after food ingestion [1]: about 10%
